# Key:
# [1] = system: lettuce (Lactuca sativa cv. L., Iceberg); assay: Phytotoxicity assay, lettuce; settings: 1 mg/mL; visual ranking on scale of 0 to 5; in the presence of light
# [2] = system: bentgrass (Agrostis stolonifera); assay: Phytotoxicity assay, bentgrass; settings: 1 mg/mL; visual ranking on scale of 0 to 5; in the presence of light
# [3] = system: Leishmania donovani promastigotes; assay: Antileishmanial assay; assay type: cell-based; settings: read-out: Antileishmanial activity IC90
# [4] = system: Vero cells (kidney fibroblast); assay: Cytotoxicity to Vero cells; assay type: cell-based
# [5] = system: Plasmodium falciparum W2 (chloroquine resistant) strain; assay: Antiplasmodial assay, chloroquine-resistant; assay type: cell-based; settings: selectivity index = IC50 for cytotoxicity (Vero)/IC50 for antiplasmodial activity
# [6] = system: Plasmodium falciparum D6 (chloroquine sensitive) strain; assay: Antiplasmodial assay, chloroquine-sensitive; assay type: cell-based; settings: selectivity index = IC50 for cytotoxicity (Vero)/IC50 for antiplasmodial activity
# [7] = system: methicillin-resistant Staphylococcus aureus ATCC 33591 (MRSA); assay: Antimicrobial assay, methicillin-resistant Staph. aureus; assay type: cell-based; settings: ATCC33591|MRSA
# [8] = system: Staphylococcus aureus ATCC 29213; assay: Antimicrobial assay, methicillin-sensitive Staph. aureus; assay type: cell-based; settings: ATCC29213
molecule,measurement,setting,value
"COc1c(C[C@@H](C)OC(C)=O)c2c3c(C[C@@H](C)O)c(OC)c(=O)c4c(O)cc5c(c6c(cc(O)c(c1=O)c62)OCO5)c43 [Compound 6, (+)-14-O-acetylcercosporin]","Phytotoxic activity ranking, lettuce",[1],2
same,"Phytotoxic activity ranking, bentgrass",[2],4
same,IC90,[3],8.5 µM
13-(R)-hydroxy-N-(O-methyl)septoriamycin A [Compound 4],Cytotoxicity to Vero cells IC50,[4],"no antimicrobial, antifungal, antiprotozoal, phytotoxic, or cytotoxic activity"
CC[C@@H](C)[C@H]1O[C@@H](c2c(OC)c(-c3ccccc3)c[n+]([O-])c2OC)[C@H](C)C[C@@H]1C [Compound 10c],Chloroquine-resistant (W2)-clone S. I.,[5],>1.2
same,Chloroquine-sensitive (D6)-clone S.I.,[6],>1.1
"COc1c(C[C@@H](C)OC(C)=O)c2c3c(C[C@@H](C)OC(C)=O)c(OC)c(=O)c4c(O)cc5c(c6c(cc(O)c(c1=O)c62)OCO5)c43 [Compound 7, (+)-di-O-acetylcercosporin]","Phytotoxic activity ranking, lettuce",[1],3
same,"Phytotoxic activity ranking, bentgrass",[2],4
"COc1c(C[C@@H](C)O)c2c3c(C[C@@H](C)O)c(OC)c(=O)c4c(O)cc5c(c6c(cc(O)c(c1=O)c62)OCO5)c43 [Compound 5, (+)-cercosporin]","Phytotoxic activity ranking, lettuce",[1],3
same,MIC,[7],5 ng/mL
same,"Phytotoxic activity ranking, bentgrass",[2],2
same,MIC,[8],2.5 ng/mL

# From PMC3361971 (Journal of Natural Products, 2012)
